Residue numbers refer to the chain shown, from its start. pIC50: −log10 of the molar value.
Legend:
[1] = system: experimental autoimmune encephalomyelitis (EAE); conditions: mouse model for multiple sclerosis; cited from earlier work
[2] = molecular target: T1, PDGFRα kinase (Homo sapiens, UniProt P16234); experiment: PDGFRα kinase assay (AlphaScreen); format: biochemical; conditions: read-out: Ranking of IC50 values, PDGFRα
T1 construct: purchased SignalChem
Protocol: (§1) Inhibition of PDGFRα kinase activity by a test compound disclosed herein was estimated by AlphaScreen (PerkinElmer). Standard assay conditions were 1.5 ng of recombinant PDGFRα kinase (SignalChem) with 6 ng Biotin-conjugated Poly-(Glu 4: Tyr 1) (Cisbio) in the assay buffer (10 μM ATP, 10 mM MOPs, pH 7.0, 0.21 mM EDTA, 0.5% glycerol, 1 mg/mL BSA, 0.01% 2-mercaptoethanol, 0.001% Brij35, 10 mM MgCl2) in a final volume of 25 μL. Reactions were incubated at 30° C. for 30 min and stopped by adding 5 g L of 50 mM EDTA. Analysis of resulting product using an AlphaScreen kit and counted with Enspire Alpha (PerkinElmer). […] The IC50 values of inhibitors were determined after carrying out assays with each compound at serially diluted concentrations in duplication. The results were analyzed using linear regression software (GraphPad Prism 5; GraphPad Software Inc.)

[3] = molecular target: T2, FLT3 kinase (Homo sapiens, UniProt P36888); experiment: FLT3 kinase assay (AlphaScreen); format: biochemical; conditions: read-out: Ranking of IC50 values, FLT3
T2 construct: purchased SignalChem
T2 sequence (P36888 27-993): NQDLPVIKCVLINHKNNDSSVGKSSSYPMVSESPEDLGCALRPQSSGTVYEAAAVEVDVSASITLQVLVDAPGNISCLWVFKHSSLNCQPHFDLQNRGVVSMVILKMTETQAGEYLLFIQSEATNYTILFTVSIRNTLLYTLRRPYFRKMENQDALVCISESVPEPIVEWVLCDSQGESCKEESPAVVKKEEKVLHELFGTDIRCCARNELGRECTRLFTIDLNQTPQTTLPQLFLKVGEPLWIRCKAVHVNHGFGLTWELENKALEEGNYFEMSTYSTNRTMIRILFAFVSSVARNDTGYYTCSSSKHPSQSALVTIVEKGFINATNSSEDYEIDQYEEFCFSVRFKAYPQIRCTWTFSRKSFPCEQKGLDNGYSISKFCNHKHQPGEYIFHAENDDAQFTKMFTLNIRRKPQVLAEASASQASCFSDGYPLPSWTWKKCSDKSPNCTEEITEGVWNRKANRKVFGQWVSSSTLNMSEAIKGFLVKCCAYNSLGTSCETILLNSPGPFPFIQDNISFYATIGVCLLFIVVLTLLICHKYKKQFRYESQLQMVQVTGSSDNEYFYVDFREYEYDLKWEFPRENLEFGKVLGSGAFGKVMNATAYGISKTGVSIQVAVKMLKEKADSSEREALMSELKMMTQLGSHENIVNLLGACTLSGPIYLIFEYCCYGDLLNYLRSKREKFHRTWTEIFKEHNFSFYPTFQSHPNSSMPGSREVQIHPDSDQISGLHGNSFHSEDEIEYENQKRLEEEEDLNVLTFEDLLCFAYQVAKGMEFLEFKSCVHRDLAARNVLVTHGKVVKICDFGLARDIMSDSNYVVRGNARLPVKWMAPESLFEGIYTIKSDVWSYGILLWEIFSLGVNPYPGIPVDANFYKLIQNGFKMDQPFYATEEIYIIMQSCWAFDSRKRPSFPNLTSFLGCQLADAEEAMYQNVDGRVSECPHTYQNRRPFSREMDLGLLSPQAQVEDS
Protocol: Inhibition of FLT3 kinase activity by a test compound disclosed herein was estimated by AlphaScreen (PerkinElmer, […]). Standard assay conditions were 1.5 ng of recombinant FLT3 kinase (SignalChem, Richmond, BC, Canada) with 6 ng Biotin-conjugated Poly-(Glu 4: Tyr 1) (Cisbio, Bedford, MA, USA) in the assay buffer (10 μM ATP, 10 mM MOPs, pH7.0, 0.21 mM EDTA, 0.5% glycerol, 1 mg/mL BSA, 0.01% 2-mercaptoethanol, 0.001% Brij35, 10 mM MgCl2) in a final volume of 25 μL. Reactions were incubated at 30° C. for 30 min and stopped by adding 5 μL of 50 mM EDTA. Analysis of resulting product using an AlphaScreen kit and counted with Enspire Alpha (PerkinElmer, Waltham, MA, USA). […] The IC50 values of inhibitors were determined after carrying out assays with each compound at serially diluted concentrations in duplication. The results were analyzed using linear regression software (GraphPad Prism 5; GraphPad Software Inc.)

[4] = molecular target: T3, FLT3-D835Y mutant kinase (Homo sapiens, UniProt P36888, D835Y); experiment: FLT3-D835Y mutant kinase assay (AlphaScreen); format: biochemical; conditions: read-out: Ranking of IC50 values, FLT3-D835Y
T3 construct: purchased SignalChem
T3 sequence (P36888 27-993 D835Y): T2 sequence (P36888 27-993) with D809Y
Protocol: as §1, with “FLT3-D835Y mutant” for “PDGFRα”, “1” for “1.5”, “pH7.0,” for “pH 7.0,”, “μL” for “g L”

[5] = molecular target: T4, MET kinase (Homo sapiens, UniProt P08581); experiment: MET kinase assay (AlphaScreen, counter screen); format: biochemical; conditions: read-out: Ranking of IC50 values, MET
T4 construct: purchased SignalChem
Protocol: Because MET kinase belonged to Class VIII RTK family have one transmembrane a chain linked with one extracellular β chain which is different form Class III RTK family with 5 Immunoglobin-like extracellular domains. Standard assay conditions were 1 ng of recombinant MET kinase (SignalChem) with 3 ng Biotin-conjugated Poly-(Glu 4: Tyr 1) (Cisbio) in the assay buffer ([…], 10 mM MOPs, pH 7.0, 0.21 mM EDTA, 0.5% glycerol, 1 mg/mL BSA, 0.01% 2-mercaptoethanol, 0.001% Brij35, 10 mM MgCl2) in a final volume of 25 μL. Reactions were incubated at 30° C. for 45 min and stopped by adding 5 μL of 50 mM EDTA. Analysis of resulting product using an AlphaScreen kit and counted with Enspire Alpha (PerkinElmer). […] The IC50 values of inhibitors were determined after carrying out assays with each compound at serially diluted concentrations in duplication. The results were analyzed using linear regression software (GraphPad Prism 5; GraphPad Software Inc.)

T4 sequence (P08581 25-1390): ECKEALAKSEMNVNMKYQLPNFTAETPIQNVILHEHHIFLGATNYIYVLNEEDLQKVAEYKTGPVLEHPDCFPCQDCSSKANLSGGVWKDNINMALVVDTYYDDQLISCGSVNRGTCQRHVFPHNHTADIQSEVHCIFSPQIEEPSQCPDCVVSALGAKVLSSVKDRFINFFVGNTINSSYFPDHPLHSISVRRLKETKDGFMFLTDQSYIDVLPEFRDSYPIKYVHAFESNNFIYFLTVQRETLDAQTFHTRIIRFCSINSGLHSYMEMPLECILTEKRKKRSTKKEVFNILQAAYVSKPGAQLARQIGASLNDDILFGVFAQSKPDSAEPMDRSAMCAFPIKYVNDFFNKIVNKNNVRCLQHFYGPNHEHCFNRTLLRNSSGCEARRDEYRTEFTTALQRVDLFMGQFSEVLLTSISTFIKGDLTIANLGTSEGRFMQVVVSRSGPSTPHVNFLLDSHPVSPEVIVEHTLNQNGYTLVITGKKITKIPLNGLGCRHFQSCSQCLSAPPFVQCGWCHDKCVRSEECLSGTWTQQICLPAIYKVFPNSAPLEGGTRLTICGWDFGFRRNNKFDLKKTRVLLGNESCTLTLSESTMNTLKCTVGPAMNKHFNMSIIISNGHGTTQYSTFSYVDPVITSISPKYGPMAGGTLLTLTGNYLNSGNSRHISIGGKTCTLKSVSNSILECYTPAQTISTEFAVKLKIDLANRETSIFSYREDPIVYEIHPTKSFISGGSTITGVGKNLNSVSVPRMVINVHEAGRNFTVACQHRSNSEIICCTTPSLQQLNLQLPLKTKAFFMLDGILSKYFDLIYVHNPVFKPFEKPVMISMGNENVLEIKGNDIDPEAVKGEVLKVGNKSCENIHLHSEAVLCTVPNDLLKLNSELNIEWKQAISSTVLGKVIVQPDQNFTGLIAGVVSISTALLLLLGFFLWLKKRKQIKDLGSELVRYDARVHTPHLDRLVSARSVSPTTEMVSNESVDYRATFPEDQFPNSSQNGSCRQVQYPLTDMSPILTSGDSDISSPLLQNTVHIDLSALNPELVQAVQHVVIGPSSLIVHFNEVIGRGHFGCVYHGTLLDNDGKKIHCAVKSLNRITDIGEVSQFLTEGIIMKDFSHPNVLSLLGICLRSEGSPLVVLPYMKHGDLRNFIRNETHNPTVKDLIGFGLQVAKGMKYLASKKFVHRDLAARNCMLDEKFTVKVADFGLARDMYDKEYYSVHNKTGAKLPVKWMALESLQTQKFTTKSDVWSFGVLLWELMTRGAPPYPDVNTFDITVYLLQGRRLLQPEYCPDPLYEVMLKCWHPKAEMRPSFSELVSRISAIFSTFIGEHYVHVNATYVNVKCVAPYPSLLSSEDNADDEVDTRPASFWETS
T1 sequence (P16234 24-1089): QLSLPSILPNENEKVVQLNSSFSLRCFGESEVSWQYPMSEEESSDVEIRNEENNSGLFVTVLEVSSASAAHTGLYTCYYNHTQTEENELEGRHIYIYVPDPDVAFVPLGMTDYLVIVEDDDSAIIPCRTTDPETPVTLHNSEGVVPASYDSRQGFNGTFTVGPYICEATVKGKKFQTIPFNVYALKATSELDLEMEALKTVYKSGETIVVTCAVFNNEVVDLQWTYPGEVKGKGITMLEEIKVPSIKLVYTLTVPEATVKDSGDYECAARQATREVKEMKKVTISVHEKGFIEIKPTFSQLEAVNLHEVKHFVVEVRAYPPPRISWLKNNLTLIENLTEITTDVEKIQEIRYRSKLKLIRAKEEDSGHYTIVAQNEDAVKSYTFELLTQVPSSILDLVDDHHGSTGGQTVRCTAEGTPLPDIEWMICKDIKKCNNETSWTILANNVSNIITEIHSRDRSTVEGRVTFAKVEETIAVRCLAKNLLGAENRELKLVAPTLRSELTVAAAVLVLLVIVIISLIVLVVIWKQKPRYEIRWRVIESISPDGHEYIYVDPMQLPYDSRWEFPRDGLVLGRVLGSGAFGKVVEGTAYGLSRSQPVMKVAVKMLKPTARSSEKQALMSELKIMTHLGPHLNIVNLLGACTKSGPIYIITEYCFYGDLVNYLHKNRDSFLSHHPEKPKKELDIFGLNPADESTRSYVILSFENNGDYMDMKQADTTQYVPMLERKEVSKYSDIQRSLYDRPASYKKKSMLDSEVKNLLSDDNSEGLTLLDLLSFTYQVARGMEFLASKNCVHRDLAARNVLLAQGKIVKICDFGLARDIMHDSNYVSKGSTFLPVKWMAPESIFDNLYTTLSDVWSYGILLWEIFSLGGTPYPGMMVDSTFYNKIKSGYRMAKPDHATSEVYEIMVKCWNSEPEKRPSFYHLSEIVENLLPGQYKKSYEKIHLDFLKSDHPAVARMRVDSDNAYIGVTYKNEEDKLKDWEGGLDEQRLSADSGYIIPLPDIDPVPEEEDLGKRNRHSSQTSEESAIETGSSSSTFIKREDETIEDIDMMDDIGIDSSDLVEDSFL

**Q.** For C[C@]12O[C@H](C[C@]1(O)CO)n1c3ccccc3c3c4c(c5c6ccccc6n2c5c31)CNC4=O [CEP-701], which “reducing myelin loss in EAE” value [1] is on record?
**A.** Its value is “effective in reducing myelin loss”.

**Q.** With Brc1n[nH]c2cc(-c3n[nH]c4c3Cc3sc(-c5ccc(CN6CCOCC6)cc5)cc3-4)ccc12 [Compound 68, 4-(4-(3-(3-bromo-1H-indazol-6-yl)-1,4-dihydro-thieno[2′,3′:4,5]cyclopenta [1,2-c]pyrazol-6-yl)benzyl)morpholine] as the compound, how does the pIC50 [2] read?
**A.** Its pIC50 is 8.00 to 9.00.

**Q.** What about the pIC50 [3] of the same compound?
**A.** Its pIC50 is 8.00 to 9.00.

**Q.** What about the pIC50 [4] of the same compound?
**A.** Its pIC50 is 8.00 to 9.00.

**Q.** And the pIC50 [5]?
**A.** The pIC50 was less than 6.00.

— patent publication US12448394B2, “Heterocyclic pyrazole derivatives as type III receptor tyrosine kinase inhibitors” (DEVELOPMENT CENTER FOR BIOTECHNOLOGY, priority 2019, dated 2025)
